Measurements from patent publication US5789425A, “Imidazolidinone derivatives, their acid adducts and therapeutic drugs for senile dementia” (Kyorin Pharmaceutical Co., Ltd., priority 1993, dated 1998).

Experiments:
[1] = test system: M1 and M2 muscarinic receptors; experiment: Selectivity to M1 receptor (ratio of IC50 values of M1 and M2 binding experiments); design: species or system rat
Description: 3) Selectivity to M1 receptor
This was determined from the ratio of IC50 values of testing compound obtained from the binding experiments of M1 and M2 muscarinic receptors. [formula]

[2] = test system: pirenzepine-induced amnesia; experiment: Testing on the pirenzepine-induced amnesia (step-through type passive avoidance); type: in vivo, Std:ddy strain male mice; conditions: orally 60 minutes before acquisition trial; for Reaction latency Mean ± S.E.: retention trial 24 hours later, maximum 300 seconds, pirenzepine-treated mice
Text: In vivo pharmacological test
Testing on the pirenzepine-induced amnesia
For the experiment animals, Std:ddy strain male mice with body weight of 24 to 33 g (age in week: 5) (Nippon SLC) were used. For the device, a step-through type passive avoidance apparatus (made by Ohara Medical Co., Ltd.) consisting of two light and dark rooms was used. In the acquisition trial, mouse was placed in the light room and, 10 seconds later, the partitive guillotine door was opened. As soon as the mouse moved into the dark room, the guillotine door was closed and electric shock of 43 to 44 V was given for 1 second through the metal grid bars of the floor. The retention trial was conducted 24 hours later since then. […] The induction of amnesia was performed by fixing a mouse at prone position without anesthetization at 20 minutes before learning acquisition trial and injecting pirenzepine (10 μg/2 μl/mouse bilaterally into cerebral ventricles using a microsyringe. Moreover, a group not to administered with pirenzepine before acquisition trial (non-amnesia comparison group) was also provided. The testing compound was administered orally at 60 minutes before acquisition trial. The improvement rate was calculated according to following equation and the results are shown in Table 8 (refer to: M. P. Callfield et al, J. Pharm. Pharmacol.) 1983, 35, 131-132). [formula]

[3] = biological target: T1, M2 type muscarinic cholinergic receptor (Rattus norvegicus, UniProt P10980); experiment: Radioligand binding experiment to M2 type muscarinic cholinergic receptor ([3H]-QNB); conditions: 0.1 nM [3H]-QNB, rat brain stem synaptosome membrane; read-out: [^3 H]-QMB (M2) IC50
T1 construct: crude synaptosome membrane specimen was prepared from the brain stem (medulla oblongata-pons) of rat; from tissue; host or cells: rat brain stem (medulla oblongata-pons), crude synaptosomal membranes
T1 sequence (P10980 1-466): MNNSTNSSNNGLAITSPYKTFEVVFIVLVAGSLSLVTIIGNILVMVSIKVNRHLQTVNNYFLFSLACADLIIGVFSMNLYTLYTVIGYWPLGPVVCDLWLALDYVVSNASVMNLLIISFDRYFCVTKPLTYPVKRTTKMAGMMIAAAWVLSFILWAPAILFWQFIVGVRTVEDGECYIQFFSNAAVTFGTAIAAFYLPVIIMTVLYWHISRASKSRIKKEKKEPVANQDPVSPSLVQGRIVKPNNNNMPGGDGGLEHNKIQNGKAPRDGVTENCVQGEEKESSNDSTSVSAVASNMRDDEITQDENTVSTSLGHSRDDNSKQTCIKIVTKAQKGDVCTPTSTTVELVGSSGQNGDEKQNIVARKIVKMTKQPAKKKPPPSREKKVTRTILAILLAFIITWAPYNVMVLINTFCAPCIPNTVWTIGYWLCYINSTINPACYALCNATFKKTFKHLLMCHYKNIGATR

[4] = biological target: T2, M1 type muscarinic cholinergic receptor (Rattus norvegicus, UniProt P08482); experiment: Radioligand binding experiment to M1 type muscarinic cholinergic receptor ([3H]-pirenzepine); conditions: 1 nM [3H]-pirenzepine, rat brain synaptosome membrane, 60 minutes at 25° C.; read-out: [^3 H]-PZ (M1) IC50
T2 construct: crude synaptosome membrane specimen prepared from all brains (except cerebellum and brain stem) of rat; from tissue; host or cells: rat whole brain without cerebellum and brain stem, crude synaptosomal membranes
T2 sequence (P08482 1-460): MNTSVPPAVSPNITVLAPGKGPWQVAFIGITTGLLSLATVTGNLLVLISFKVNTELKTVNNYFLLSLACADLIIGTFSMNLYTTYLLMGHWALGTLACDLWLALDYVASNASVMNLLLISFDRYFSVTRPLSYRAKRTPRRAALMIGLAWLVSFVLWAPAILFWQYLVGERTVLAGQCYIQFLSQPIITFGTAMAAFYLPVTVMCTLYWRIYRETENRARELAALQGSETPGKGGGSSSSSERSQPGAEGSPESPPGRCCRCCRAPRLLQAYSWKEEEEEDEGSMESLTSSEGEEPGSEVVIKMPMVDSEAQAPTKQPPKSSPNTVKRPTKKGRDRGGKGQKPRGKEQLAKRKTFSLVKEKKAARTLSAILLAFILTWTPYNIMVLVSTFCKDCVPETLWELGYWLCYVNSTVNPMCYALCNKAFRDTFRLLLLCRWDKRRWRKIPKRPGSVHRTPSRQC
Description: 1) Radioligand binding experiment to M1 type muscarinic cholinergic receptor
Method: To a crude synaptosome membrane specimen prepared from all brains (except cerebellum and brain stem) of rat, [^3 H]-pirenzepine ([^3 H]-PZ, final concentration: 1 nM) and testing compound were added and the mixture was incubated for 60 minutes at 25° C. After stopped the reaction by filtered with suction, the radioactivity on filter was measured with liquid scintillation counter. The specific binding level of [^3 H]-pirenzepine was determined by subtracting the non-specific binding level in the presence of atropine (1 μM) from total binding level. Putting the [^3 H]-pirenzepine binding in the absence of testing compound on 100, the concentration of compound to decrease by 50% (IC50 value) was made an index of the binding activity of compound to M1 muscarinic receptor (refer to: J. A. D. M. Toner et al, Life Science, 1987, 40, 1981-1987).

Row | Compound | IC50 (M2)/C50 (M1) [1] | Improvement rate ([2]; 3 mg/kg) [%] | Reaction latency Mean ± S.E. ([2]; 3 mg/kg) [s] | IC50 [3] [µM] | IC50 [4] [µM] | Improvement rate ([2]; 1 mg/kg) [%] | Reaction latency Mean ± S.E. ([2]; 1 mg/kg) [s]
1 | O=C1N(C2=CCCN(Cc3ccccc3)C2)CCN1c1ccc([N+](=O)[O-])cc1 [Example 4, 1-[3-(1-Phenylmethyl-1,2,5,6-tetrahydropyridyl)]-3-(4-nitrophenyl)-2-imidazolidinone] | > 11.3 | 43.6 | 71.1 ± 30.2 | > 6 | 0.53 |  | 
2 | O=C1N(C2=CCCN(Cc3ccccc3)C2)CCN1c1ccc(Cl)cc1 [Example 17, 1-[3-(1-Phenylmethyl-1,2,5,6-tetrahydropyridyl)]-3-(4-chlorophenyl)-2-imidazolidinone] | > 16.2 | 68.8 | 164.2 ± 37.5 | > 6 | 0.37 | 82.7 | 189.9 ± 52.8
